Test results published in ChEMBL document CHEMBL5550222, “Synthesis and Biological Evaluation of Novel Psidium Meroterpenoid Derivatives against Cisplatin-Induced Acute Kidney Injury” (J Med Chem, 2024).
Activity calls are given as the source filed them. The rule behind the calls is not given here.

What was measured:
[1] = biological target: T1, Tyrosine-protein phosphatase non-receptor type 1 (Homo sapiens, UniProt P18031); assay: Inhibition of PTP1B (unknown origin)
T1 sequence (P18031 whole entry): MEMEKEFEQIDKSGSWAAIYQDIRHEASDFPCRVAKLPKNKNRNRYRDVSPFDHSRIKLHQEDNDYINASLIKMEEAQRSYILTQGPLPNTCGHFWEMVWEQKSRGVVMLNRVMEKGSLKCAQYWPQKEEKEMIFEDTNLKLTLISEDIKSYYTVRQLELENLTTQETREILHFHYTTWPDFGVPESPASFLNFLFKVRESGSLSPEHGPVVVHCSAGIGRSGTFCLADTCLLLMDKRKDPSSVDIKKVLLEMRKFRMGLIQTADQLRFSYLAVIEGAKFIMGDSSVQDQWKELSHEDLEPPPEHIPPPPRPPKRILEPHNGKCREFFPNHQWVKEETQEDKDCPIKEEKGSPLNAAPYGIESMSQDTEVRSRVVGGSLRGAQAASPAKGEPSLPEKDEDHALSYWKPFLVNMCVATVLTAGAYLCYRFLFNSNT

[2] = Antitumor activity against cisplatin-induced mouse Lewis lung carcinoma cell line xenografted C57BL/6J mouse assessed as reduction in tumor mass at 50 mg/kg, po preadministered with compound for 3 days followed by cisplatin addition on day 3 and measured 72 hrs post cisplatin administration; format: functional; parameters: scale not given: the % may be the effect or the level left; conditions: time 6 day
[3] = Cytotoxicity against human HK-2 cells incubated for 72 hrs by MTT assay; format: toxicity, cell-based
[4] = tested on: HK-2; assay: Protection against cisplatin-induced nephrotoxicity in human HK-2 cells assessed as cell viability at 1 uM preincubated with compound for 2 hrs followed by cisplatin induction and measured after 72 hrs by MTT assay (reference value: 45.1 +/- 3.2%); format: functional; conditions: time 74 hrs, read-out: Activity
[5] = tested on: HK-2; assay: Protection against cisplatin-induced nephrotoxicity in human HK-2 cells assessed as cell viability at 5 uM preincubated with compound for 2 hrs followed by cisplatin induction and measured after 72 hrs by MTT assay (reference value: 45.1 +/- 3.2%); format: functional; conditions: time 74 hrs, read-out: Activity
[6] = tested on: HK-2; assay: Protection against cisplatin-induced nephrotoxicity in human HK-2 cells assessed as cell viability at 10 uM preincubated with compound for 2 hrs followed by cisplatin induction and measured after 72 hrs by MTT assay (reference value: 45.1 +/- 3.2%); format: functional; conditions: time 74 hrs, read-out: Activity
[7] = tested on: HK-2; assay: Protection against cisplatin-induced nephrotoxicity in human HK-2 cells assessed as cell viability at 1 uM preincubated with compound for 2 hrs followed by cisplatin induction and measured after 72 hrs by MTT assay (reference value: 37.37 +/- 1.35%); format: functional; conditions: time 74 hrs, read-out: Activity
[8] = tested on: HK-2; assay: Protection against cisplatin-induced nephrotoxicity in human HK-2 cells assessed as cell viability at 5 uM preincubated with compound for 2 hrs followed by cisplatin induction and measured after 72 hrs by MTT assay (reference value: 37.37 +/- 1.35%); format: functional; conditions: time 74 hrs, read-out: Activity
[9] = tested on: HK-2; assay: Protection against cisplatin-induced nephrotoxicity in human HK-2 cells assessed as cell viability at 10 uM preincubated with compound for 2 hrs followed by cisplatin induction and measured after 72 hrs by MTT assay (reference value: 37.37 +/- 1.35%); format: functional; conditions: time 74 hrs, read-out: Activity
[10] = tested on: HK-2; assay: Protection against cisplatin-induced nephrotoxicity in human HK-2 cells at 5 to 10 uM preincubated with compound for 2 hrs followed by cisplatin induction and measured after 72 hrs by MTT assay; format: functional, cell-based; conditions: dose 5-10 µM, time 74.0 hrs
[11] = tested on: HK-2; assay: Protection against cisplatin-induced nephrotoxicity in human HK-2 cells preincubated with compound for 2 hrs followed by cisplatin induction and measured after 72 hrs by MTT assay; format: functional, cell-based; conditions: dose 1-10 µM, time 74.0 hrs
[12] = tested on: HK-2; assay: Protection against cisplatin-induced nephrotoxicity in human HK-2 cells increase in viability at 10 uM preincubated with compound for 2 hrs followed by cisplatin induction and measured after 72 hrs by MTT assay (reference value: 45.1%); format: functional; conditions: time 74 hrs

| IC50 [1] [µM] | SMILES | IC50 at 72 h [3] [µM] | viability at 1 µM [4] [%] | viability at 5 µM [5] [%] | viability at 10 µM [6] [%] | Activity [10] | further results |
| --- | --- | --- | --- | --- | --- | --- | --- |
| 5 | C=C1CC[C@@H]2[C@H](c3ccccc3)c3c(O)c(C=O)c(O)c(C=O)c3O[C@@]2(C)CC[C@H]2[C@H]1CC2(C)C |  |  |  |  |  |  |
| 5 | C[C@@H]1CC[C@@H]([C@@H](c2ccccc2)c2c(O)c(C=O)c(O)c(C=O)c2O)[C@]2(C)CC[C@@H](C(C)(C)O)C=C12 |  |  |  |  |  |  |
|  | NCCCNCCSP(=O)(O)O [AMIFOSTINE] |  |  |  |  |  | Activity [2]: 28.2% |
|  | COc1c(CO)c(OC)c(C(=O)c2ccccc2)c2c1CC1CC/C(C)=C/CC(C)(C)/C=C/CC1(C)O2 (centres undefined) | > 10 | 45.7 | 80.8 | 95.5 | Active | viability at 1 µM [7]: 39.1%; viability at 5 µM [8]: 50.5%; viability at 10 µM [9]: 61.6%; Activity [11]: Dose-Dependent Effect; Activity [12]: >90% |
| 5 | CC1(C)[C@H]2[C@H]3[C@@H](CC[C@]3(C)[C@@H](c3ccccc3)c3c(O)c(C=O)c(O)c(C=O)c3O)[C@](C)(O)CC[C@H]21 |  |  |  |  |  |  |
|  | COc1c2c(c(CN3CCN(C)CC3)c(OC)c1C(=O)c1ccccc1)OC1(C)C/C=C/C(C)(C)C/C=C(\C)CCC1C2 (centres undefined) | 9.5 | 49.7 | 59.6 | 64.2 | Active |  |
|  | COc1c2c(c(C(=O)c3ccccc3)c(OC)c1C(=O)O)OC1(C)C/C=C/C(C)(C)C/C=C(\C)CCC1C2 (centres undefined) | > 10 | 48.4 | 60.4 | 65 | Active |  |
|  | COc1c(C=O)c2c(c(OC)c1C(=O)c1ccccc1)CC1CC/C(C)=C/CC(C)(C)/C=C/CC1(C)O2 (centres undefined) | > 10 | 70.4 | 79.2 | 67.9 | Active |  |
